# Assay results reported in patent US20260317319A1, “NOVEL ERGOLINES AND METHODS OF TREATING MOOD DISORDERS” (Gilgamesh Pharma Inc., priority 2023, published 2026).
# Where two headings read alike, the source gives them in different places.
# Legend:
# [1] = tested on: Sprague Dawley rats; experiment: Forced swim test (FST) in rats; type: in vivo, rat; settings: rat FST, dose 20 mg/kg, positive control; average of 3 independent experiments
# Procedure: Compound 1 induced antidepressant-like effects in the forced swim test (FST) in rats with a 23.5-h pre-treatment time (FIG. 2).
# Animals. Male Sprague Dawley rats, aged 9-10 weeks, were used in this experiment. Animals were housed in groups of 2 under controlled temperature (22±3° C.) and relative humidity (30-70%) conditions, with 12-hour light/dark cycles, and with ad libitum food and water. This study was carried out in strict accordance with the requirements of the Committee for the Purpose of Control and Supervision of Experiments on Animals (CPCSEA), India. All efforts were made to minimize suffering.
# Forced Swim Test (FST). […] Rats were handled for about 2 min daily for the 5 days prior to the beginning of the experimental procedure. On the first day of the experiment (i.e., Day 0), post randomization, training swim sessions (Swim 1) were conducted between 12:00 and 18:00 h with all animals by placing rats in individual glass cylinders (46 cm tall×20 cm in diameter) containing 23-25° C. water 30 cm deep for 15 minutes. At the conclusion of Swim 1, animals were dried with paper towels, placed in heated drying cages for 15 minutes, and then returned to their home cages. Animals were then administered the appropriate drug or vehicle treatment(s), as described above. For clarity, a compound administration time of 23.5 h before Swim 2 means 0.5 h after the start of Swim 1 and 0.25 h after the completion of Swim 1 (i.e., immediately after return to the home cage). On Day 1 (i.e., 24 h after start of Swim 1), animals performed the test swim (Swim 2) for a period of 5 min but otherwise under the same conditions as Swim 1. During all swim sessions, the water was changed between each animal.
# Behavioral scoring was conducted by observers who were blind to the treatment groups. Animals were continuously observed during Swim 2 and the total time spent engaging in the following behaviors was recorded: immobile, swimming, and climbing. A rat was judged to be immobile when it remained floating in the water without struggling and was making only those movements necessary to keep its head above water. A rat was judged to be swimming when it made active swimming motions, more than necessary to merely maintain its head above water (e.g., moving around in the cylinder). A rat was judged to be climbing when it made active movements with its forepaws in and out of the water, usually directed against the walls.
# Statistical Analysis. The data points shown represent the mean±standard error of the mean (SEM). Analysis was performed using GraphPad Prism 6. Comparisons between groups were performed using the one-way analysis of variance (ANOVA), followed by Dunnett's test for comparisons to vehicle.
# Additional disclosed compounds were tested in the forced swim test (FST) in rats according to the procedure described in Example 58 (compounds 18 and 19 administered in 10% DMSO in saline).
# [2] = in vitro; type: in vitro ADME, mouse; settings: MLM (male CD-1) 0.50 mg/mL, NADPH 1 mM, 1 μM compound, pH 7.4, 37° C., 60 min
# Excerpt: MLM Stability Pooled MLM from male CD-1 mice (BIOIVT M00501) were used.
# [3] = target: T1, 5-HT2B receptor (Homo sapiens, UniProt P41595); experiment: cell-based; type: cell-based; settings: HEK293, agonist, Ca2+ flux, HEK293, max dose; read-out: 5-HT2B % Act @ Max Dose
# T1 construct: expressed in transfected cells; host or cells: HEK293, stably transfected
# How it was run: (§1)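 FLIPR Tetra fluorescence read-out of calcium flux after compound addition. Receptor-expressing stable lines were used (HEK293 for 2A/2B; CHO with Gα15 for 1A), dye-loaded with Fluo-4 Direct and 2.5 mM final probenecid, 50 min at 37 °C.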
# [4] = in vitro; type: in vitro ADME, rat; settings: RLM (male Sprague-Dawley) 0.50 mg/mL, NADPH 1 mM, 1 μM compound, pH 7.4, 37° C., 60 min
# Excerpt: RLM Stability Pooled RLM from male Sprague-Dawley rats (Xenotech R1000) were used.
# [5] = target: T2, 5-HT1B receptor (Homo sapiens, UniProt P28222); experiment: cAMP accumulation functional assay at 5-HT1B; type: cell-based; settings: agonist, cAMP accumulation, max dose; read-out: 5-HT1B % Act @ Max Dose
# T2 construct: expressed in transfected cells
# How it was run: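 Stably transfected human 5-HT1B cells were incubated 60 min at room temperature, after which detection reagent was applied for another 60 min at RT. The read-out was cAMP accumulation, used as a measure of agonist activity.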
# [6] = in vitro; type: in vitro ADME, human; settings: HLM 0.50 mg/mL, NADPH 1 mM, 1 μM compound, pH 7.4, 37° C., 60 min
# [7] = target: T3, 5-HT2A receptor (Homo sapiens, UniProt P28223); experiment: cell-based; type: cell-based; design: expressed in transfected cells; host or cells: HEK293, stably transfected; settings: HEK293, agonist, Ca2+ flux, HEK293, max dose; read-out: 5-HT2A % Act @ Max Dose
# How it was run: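 Stable HEK293 (5-HT2A, 5-HT2B) or CHO/Gα15 (5-HT1A) cells; Fluo-4 Direct, probenecid 2.5 mM final; 50 min dye load, 37 °C, 5% CO2; agonist-mode Ca2+ flux, FLIPR Tetra.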
# [8] = target: T4, 5-HT1A receptor (Homo sapiens, UniProt P08908); experiment: cell-based; settings: CHO, agonist, Ca2+ flux, CHO cells with Gα15, max dose; read-out: 5-HT1A % Act @ Max Dose
# T4 construct: expressed in transfected cells; host or cells: CHO cells, stably transfected
# T4 sequence (P08908 1-422): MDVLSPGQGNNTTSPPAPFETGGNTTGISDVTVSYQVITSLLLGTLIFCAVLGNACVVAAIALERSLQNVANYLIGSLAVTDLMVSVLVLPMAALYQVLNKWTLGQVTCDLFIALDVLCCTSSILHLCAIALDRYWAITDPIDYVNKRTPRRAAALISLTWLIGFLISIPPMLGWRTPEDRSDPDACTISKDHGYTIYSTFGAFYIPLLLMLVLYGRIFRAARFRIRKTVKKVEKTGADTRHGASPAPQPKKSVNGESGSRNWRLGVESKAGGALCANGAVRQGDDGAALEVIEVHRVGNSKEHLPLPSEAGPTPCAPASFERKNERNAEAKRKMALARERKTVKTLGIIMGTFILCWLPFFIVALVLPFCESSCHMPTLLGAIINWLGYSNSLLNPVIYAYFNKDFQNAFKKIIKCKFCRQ
# How it was run: as §1
# [9] = target: T5, Alpha1A adrenergic receptor (Homo sapiens, UniProt P35348); experiment: Ca2+ flux functional assay at Alpha1A; type: cell-based; settings: agonist, Ca2+ flux, max dose; read-out: Alpha 1A % Act @ Max Dose
# T5 construct: expressed in transfected cells
# T5 sequence (P35348 1-466): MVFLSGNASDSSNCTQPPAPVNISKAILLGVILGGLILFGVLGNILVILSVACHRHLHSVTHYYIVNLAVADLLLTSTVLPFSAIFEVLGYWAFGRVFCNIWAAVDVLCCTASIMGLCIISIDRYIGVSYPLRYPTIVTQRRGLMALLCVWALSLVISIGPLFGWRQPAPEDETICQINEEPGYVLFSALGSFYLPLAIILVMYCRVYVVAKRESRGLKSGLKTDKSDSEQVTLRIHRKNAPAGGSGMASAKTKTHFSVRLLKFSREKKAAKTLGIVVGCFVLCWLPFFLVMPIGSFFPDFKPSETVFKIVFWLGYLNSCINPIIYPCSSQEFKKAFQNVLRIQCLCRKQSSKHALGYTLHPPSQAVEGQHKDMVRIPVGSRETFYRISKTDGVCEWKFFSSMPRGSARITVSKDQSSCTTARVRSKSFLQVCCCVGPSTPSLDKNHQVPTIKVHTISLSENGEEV
# Procedure: Disclosed compounds were tested for agonist activity at several adrenergic (Alpha1A and Alpha2A) and dopamine (D1 and D2) receptor subtypes using Ca^2+ flux functional assays, with the results summarized in Table 6. Selectivity for the 5-HT2A receptor over these other targets varied depending on the specific target and compound.
# Functional Assays at Adrenergic and Dopamine Receptors. Agonist activity at Alpha1A, Alpha2A, D1, and D2 receptors was determined using a FLIPR Ca^2+ flux assay at WuXi AppTec (Hong Kong) Limited according to their standard protocols. Briefly, stably transfected cells expressing the receptor of interest were grown and plated in a 384 well plate and incubated at 37° C. and 5% CO2 overnight. A solution of 250 mM probenecid in 1 mL FLIPR assay buffer was prepared fresh. This was combined with a fluorescent dye (Fluo-4 Direct™) to make a final assay concentration of 2.5 mM. Compounds were diluted 1:3.16 for 10 points and 750 nL was added to a 384 well compound plate using ECHO along with 30 μL assay buffer. The fluorescent dye was then added to the assay plate along with assay buffer to a final volume of 40 μL. The cell plate was incubated for 50 min at 37° C. and 5% CO2 and placed into the FLIPR Tetra along with the compound plate. 10 μL of references and compounds were then transferred from the compound plate into the cell plate and the fluorescent signal was read.
# [10] = in vitro; type: in vitro ADME, human; settings: for metabolised: human, microsomes, role: substrate, metabolite 83 formed in HLM, read-out: Metabolite Formation (percent formation of metabolite 83)
# Procedure: The ability of deuteration in compound 68 to attenuate formation of metabolite 83 compared to the same transformation of the non-deuterated compound 18 was also determined.
# HLM Stability. Pooled HLM from adult male and female donors (Corning 452117) were used.
# [11] = target: T3, 5-HT2A receptor; experiment: biochemical; type: binding; design: expressed in transfected cells; host or cells: HEK293, stably transfected; settings: [3H]ketanserin 1 nM; HEK293 stable cell line; 1 h, 25 °C
# How it was run: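 Test compounds competed with [^3H]ketanserin for receptor binding, and affinity was derived from the radioligand displacement.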
# T3 sequence (P28223 whole entry): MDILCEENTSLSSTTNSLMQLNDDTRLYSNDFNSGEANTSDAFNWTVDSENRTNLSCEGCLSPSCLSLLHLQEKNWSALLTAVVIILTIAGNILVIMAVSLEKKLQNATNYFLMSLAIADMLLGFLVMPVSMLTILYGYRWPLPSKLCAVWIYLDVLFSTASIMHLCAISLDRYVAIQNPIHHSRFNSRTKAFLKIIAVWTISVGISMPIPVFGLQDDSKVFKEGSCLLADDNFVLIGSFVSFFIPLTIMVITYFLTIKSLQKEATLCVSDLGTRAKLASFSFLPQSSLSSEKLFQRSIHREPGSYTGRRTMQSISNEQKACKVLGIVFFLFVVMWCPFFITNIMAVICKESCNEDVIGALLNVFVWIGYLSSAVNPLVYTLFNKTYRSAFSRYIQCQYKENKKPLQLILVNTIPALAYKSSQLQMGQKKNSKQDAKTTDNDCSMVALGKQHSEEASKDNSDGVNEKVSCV
# T2 sequence (P28222 whole entry): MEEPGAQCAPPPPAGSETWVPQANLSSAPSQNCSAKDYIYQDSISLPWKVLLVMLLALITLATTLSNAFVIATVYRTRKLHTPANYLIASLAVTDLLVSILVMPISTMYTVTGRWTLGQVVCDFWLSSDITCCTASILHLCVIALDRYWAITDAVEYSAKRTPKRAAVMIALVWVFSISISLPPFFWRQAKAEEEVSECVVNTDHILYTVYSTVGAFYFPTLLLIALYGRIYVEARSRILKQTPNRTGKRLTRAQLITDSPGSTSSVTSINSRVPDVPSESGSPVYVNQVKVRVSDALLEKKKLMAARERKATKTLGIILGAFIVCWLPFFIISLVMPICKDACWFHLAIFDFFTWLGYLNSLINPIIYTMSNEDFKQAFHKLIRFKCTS
# T1 sequence (P41595 whole entry): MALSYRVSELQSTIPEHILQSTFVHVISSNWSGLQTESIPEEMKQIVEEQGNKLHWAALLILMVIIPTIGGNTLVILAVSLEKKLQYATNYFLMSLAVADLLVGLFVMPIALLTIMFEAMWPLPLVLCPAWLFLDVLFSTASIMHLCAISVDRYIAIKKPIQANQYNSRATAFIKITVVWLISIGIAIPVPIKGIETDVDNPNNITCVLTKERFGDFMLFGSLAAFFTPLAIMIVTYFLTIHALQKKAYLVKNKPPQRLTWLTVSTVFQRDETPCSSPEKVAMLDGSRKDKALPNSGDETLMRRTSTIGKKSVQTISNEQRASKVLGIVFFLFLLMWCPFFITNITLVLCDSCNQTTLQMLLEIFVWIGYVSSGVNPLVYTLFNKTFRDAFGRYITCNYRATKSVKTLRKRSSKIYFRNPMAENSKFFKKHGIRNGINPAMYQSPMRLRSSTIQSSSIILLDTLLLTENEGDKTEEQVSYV
structure (smiles),measurement,setting,value
"CNCCCN1c2ccccc2CCc2ccccc21 [Desipramine, desipramine, reference compound]",Time Immobile,[1],60.93 s
"CCN(CC)C(=O)[C@@H]1C=C2c3cccc4[nH]cc(c34)C[C@H]2N(CC2CC2)C1 [Compound 13, (6aR,9R)—N,N-diethyl-7-(cyclopropylmethyl)-4,6,6a,7,8,9-hexahydroindolo[4,3-fg]quinoline-9-carboxamide]",half-life (t1/2),[2],3.7 min
same,Emax,[3],91.8%
same,half-life (t1/2),[4],27.7 min
same,Emax,[5],90.4%
same,half-life (t1/2),[6],21.1 min
same,Emax,[7],92.6%
same,Emax,[8],83.1%
same,Emax,[9],80.8%
"[2H]C([2H])(c1cccc(OC)c1)N1C[C@H](C(=O)N(CC)CC)C=C2c3cccc4[nH]cc(c34)C[C@H]21 [Compound 68, (6aR,9R)—N,N-diethyl-7-((3-methoxyphenyl)methyl-d2)-4,6,6a,7,8,9-hexahydroindolo[4,3-fg]quinoline-9-carboxamide]",microsomal CLint,"[2]; mouse, microsomes, read-out: Intrinsic clearance (Clint)",436 µL/min/mg
same,half-life,"[2]; mouse, microsomes, read-out: half-life (t1/2)",3.2 min
same,formation of metabolite 83,[10]; formation of 83 from 68 compared to formation from 18,substantially attenuated compared to formation of 83 from 18
same,metabolised,[10]; T = 0,0.1%
same,metabolised,[10]; T = 5,2.9%
same,metabolised,[10]; T = 15,4.3%
same,metabolised,[10]; T = 30,5.7%
same,metabolised,[10]; T = 45,5.8%
same,metabolised,[10]; T = 60,6.2%
same,microsomal CLint,"[4]; rat, microsomes, read-out: Intrinsic clearance (Clint)",360 µL/min/mg
same,half-life,"[4]; rat, microsomes, read-out: half-life (t1/2)",3.9 min
same,microsomal CLint,"[6]; human, microsomes, read-out: Intrinsic clearance (Clint)",130 µL/min/mg
same,half-life,"[6]; human, microsomes, read-out: half-life (t1/2)",10.6 min
same,Ki,[11],3.02 nM
